Experimental data published in patent US10648968B2, “In vitro test system to evaluate xenobiotics as immune-modulators of drug transport and metabolism in human hepatocytes” (XenoTech, LLC, priority 2011, dated 2020).

Tests used:
[1] = system: CYP3A4; conditions: co-cultures of hepatocyte and Kupffer cells, three livers, treated daily for 72 hours; testosterone 6β-hydroxylation by LC/MS/MS
[2] = system: CYP1A2; conditions: co-cultures of hepatocyte and Kupffer cells, three livers, treated daily for 72 hours; phenacetin O-dealkylation by LC/MS/MS
[3] = in humans following LPS treatment; correlated with changes in TNF and IL-6; cited from earlier work

Substance: lipopolysaccharides [LPS]
- CYP3A4 activity [1]: decrease
- CYP1A2 activity [2]: decrease
- antipyrine (AP) clearance [3]: changes
